Reference: ChEMBL document CHEMBL5726800, “Indazole and azaindazole Btk inhibitors” (2019)
pIC50: −log10 of the molar value.

How the values were obtained:
[1] = biological target: T1, Tyrosine-protein kinase BTK (Homo sapiens, UniProt Q06187); experiment: 25P Btk Enzyme Activity Assay: Btk enzymatic activity was determined with the LANCE (Lanthanide Chelate Excite) TR-FRET (lime-resolved fluorescence resonance energy transfer) assay. […] To each well of a black non-binding surface Corning 384-well microplate (Corning Catalog #3820), 5 nL of compound (2000 fold dilution in final assay volume of 10 μL) was dispensed, followed by the addition of 7.5 μL of 1× kinase buffer (50 mM Hepes 7.5, 10 mM MgCl2, 0.01% Brij-35, 1 mM EGTA, 0.05% BSA and 1 mM DTT) containing 26.67 pg/μL (266.7 pM) of 25P Btk enzyme (recombinant protein from baculovirus-transfected Sf9 cells: full-length Btk; MW=79378 Da). Following a 60 minute compound and enzyme incubation, each reaction was initiated by the addition of 2.5 μL 1× kinase buffer containing 8 μM biotinylated “A5” peptide (Biotin-EQEDEPEGDYFEWLE-NH2), and 100 μM ATP. The final reaction in each well of 10 consists of 200 pM 25P Btk, 2 μM biotin-A5-peptide, and 25 μM ATP. Phosphorylation reactions were allowed to proceed for 120 minutes. Reactions were immediately quenched by the addition of 20 uL of 1× quench buffer (15 mM EDTA, 25 mM Hepes 7.3, and 0.1% Triton X-100) containing detection reagents (0.626 nM of LANCE-Eu-W1024-anti-phosphoTyrosine antibody, PerkinElmer and 86.8 nM of Streptavidin-conjugated Dylight 650, Dyomics/ThermoFisher Scientific). […]
[2] = biological target: T1, Tyrosine-protein kinase BTK; experiment: 100P Btk Enzyme Activity Assay: Btk enzymatic activity was determined with the LANCE (Lanthanide Chelate Excite) TR-FRET (lime-resolved fluorescence resonance energy transfer) assay. […] To each well of a black non-binding surface Corning 384-well microplate (Corning Catalog #3820), 5 nL of compound (2000 fold dilution in final assay volume of 10 μL) was dispensed, followed by the addition of 7.5 μL of 1× kinase buffer (50 mM Hepes 7.5, 10 mM MgCl2, 0.01% Brij-35, 1 mM EGTA, 0.05% BSA & 1 mM DTT) containing 13.3 pg/μL (133.3 pM) of 100P Btk enzyme (recombinant protein from baculovirus-transfected Sf9 cells: full-length Btk; MW=79378 Da). Following a 60 minute compound and enzyme incubation, each reaction was initiated by the addition of 2.5 μL 1× kinase buffer containing 8 μM biotinylated “A5” peptide (Biotin-EQEDEPEGDYFEWLE-NH2) (SEQ.ID.NO.: 1) and 100 μM ATP. The final reaction in each well of 10 consists of 100 pM 100P Btk, 2 μM biotin-A5-peptide, and 25 μM ATP. Phosphorylation reactions were allowed to proceed for 45 minutes. Reactions were immediately quenched by the addition of 20 uL of 1× quench buffer (15 mM EDTA, 25 mM Hepes 7.3, and 0.1% Triton X-100) containing detection reagents (0.626 nM of LANCE-Eu-W1024-anti-phosphoTyrosine antibody, PerkinElmer and 86.8 nM of Streptavidin-conjugated Dylight 650, Dyomics/ThermoFisher Scientific). […]

T1 sequence (Q06187 whole entry): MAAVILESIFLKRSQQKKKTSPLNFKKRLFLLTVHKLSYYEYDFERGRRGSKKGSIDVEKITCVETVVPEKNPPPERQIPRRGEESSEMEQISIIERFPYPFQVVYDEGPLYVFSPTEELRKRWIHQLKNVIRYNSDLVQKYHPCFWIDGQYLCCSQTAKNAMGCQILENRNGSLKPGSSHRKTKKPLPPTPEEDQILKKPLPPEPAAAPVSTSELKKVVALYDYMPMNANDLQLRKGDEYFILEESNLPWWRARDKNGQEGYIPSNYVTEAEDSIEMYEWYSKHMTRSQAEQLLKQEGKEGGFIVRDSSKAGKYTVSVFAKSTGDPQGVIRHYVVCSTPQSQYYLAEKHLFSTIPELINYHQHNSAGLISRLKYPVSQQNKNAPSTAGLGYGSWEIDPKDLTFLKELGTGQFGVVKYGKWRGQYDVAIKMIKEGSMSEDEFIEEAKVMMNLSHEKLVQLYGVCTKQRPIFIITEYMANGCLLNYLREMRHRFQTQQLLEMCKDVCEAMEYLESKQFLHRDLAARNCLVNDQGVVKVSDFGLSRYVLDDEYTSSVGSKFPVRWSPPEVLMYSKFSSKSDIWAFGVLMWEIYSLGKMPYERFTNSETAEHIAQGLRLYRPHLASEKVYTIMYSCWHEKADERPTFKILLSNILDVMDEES

pIC50 [1]: 7.62 | pIC50 [2]: ≤ 6.00
SMILES: Cc1c(NC(=O)c2ccc(C(C)(C)C)cc2F)cccc1-c1cc(-c2cnn(C)c2)c2[nH]nc(N)c2c1
